Assay results published in ChEMBL document CHEMBL5465560, “Selectivity Literature for EUbOPEN Chemogenomic Library” (2024).

Experiments:
[1] = target: Tyrosine-protein kinase ABL1 (Homo sapiens, UniProt P00519); details: at 10 µM
[2] = target: T1, STE20-related kinase adapter protein alpha (Homo sapiens) (UniProt Q7RTN6); experiment: Selectivity interaction (ActivX KiNativ screen (kinase selectivity in THP-1 cell lysates)) EUB0000639a STRADA; assay type: subcellular; details: lysate, at 5 µM
T1 sequence (whole entry): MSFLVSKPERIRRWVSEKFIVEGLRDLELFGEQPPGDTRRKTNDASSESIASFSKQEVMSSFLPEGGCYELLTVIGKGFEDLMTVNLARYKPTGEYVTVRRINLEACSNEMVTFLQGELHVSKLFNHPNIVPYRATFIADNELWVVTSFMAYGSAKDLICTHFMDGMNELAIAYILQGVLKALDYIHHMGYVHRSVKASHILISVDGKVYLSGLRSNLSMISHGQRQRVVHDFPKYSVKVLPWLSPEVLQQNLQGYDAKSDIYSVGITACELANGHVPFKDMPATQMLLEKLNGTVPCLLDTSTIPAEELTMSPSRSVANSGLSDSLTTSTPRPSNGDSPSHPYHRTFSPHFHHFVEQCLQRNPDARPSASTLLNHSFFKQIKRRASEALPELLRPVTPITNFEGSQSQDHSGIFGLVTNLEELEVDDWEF

[3] = target: T2, Serine/threonine-protein kinase 36 (Homo sapiens) (UniProt Q9NRP7); experiment: Selectivity interaction (KinomeScan (DiscoverX)) EUB0000695a STK36; details: at 100 nM
T2 sequence (whole entry): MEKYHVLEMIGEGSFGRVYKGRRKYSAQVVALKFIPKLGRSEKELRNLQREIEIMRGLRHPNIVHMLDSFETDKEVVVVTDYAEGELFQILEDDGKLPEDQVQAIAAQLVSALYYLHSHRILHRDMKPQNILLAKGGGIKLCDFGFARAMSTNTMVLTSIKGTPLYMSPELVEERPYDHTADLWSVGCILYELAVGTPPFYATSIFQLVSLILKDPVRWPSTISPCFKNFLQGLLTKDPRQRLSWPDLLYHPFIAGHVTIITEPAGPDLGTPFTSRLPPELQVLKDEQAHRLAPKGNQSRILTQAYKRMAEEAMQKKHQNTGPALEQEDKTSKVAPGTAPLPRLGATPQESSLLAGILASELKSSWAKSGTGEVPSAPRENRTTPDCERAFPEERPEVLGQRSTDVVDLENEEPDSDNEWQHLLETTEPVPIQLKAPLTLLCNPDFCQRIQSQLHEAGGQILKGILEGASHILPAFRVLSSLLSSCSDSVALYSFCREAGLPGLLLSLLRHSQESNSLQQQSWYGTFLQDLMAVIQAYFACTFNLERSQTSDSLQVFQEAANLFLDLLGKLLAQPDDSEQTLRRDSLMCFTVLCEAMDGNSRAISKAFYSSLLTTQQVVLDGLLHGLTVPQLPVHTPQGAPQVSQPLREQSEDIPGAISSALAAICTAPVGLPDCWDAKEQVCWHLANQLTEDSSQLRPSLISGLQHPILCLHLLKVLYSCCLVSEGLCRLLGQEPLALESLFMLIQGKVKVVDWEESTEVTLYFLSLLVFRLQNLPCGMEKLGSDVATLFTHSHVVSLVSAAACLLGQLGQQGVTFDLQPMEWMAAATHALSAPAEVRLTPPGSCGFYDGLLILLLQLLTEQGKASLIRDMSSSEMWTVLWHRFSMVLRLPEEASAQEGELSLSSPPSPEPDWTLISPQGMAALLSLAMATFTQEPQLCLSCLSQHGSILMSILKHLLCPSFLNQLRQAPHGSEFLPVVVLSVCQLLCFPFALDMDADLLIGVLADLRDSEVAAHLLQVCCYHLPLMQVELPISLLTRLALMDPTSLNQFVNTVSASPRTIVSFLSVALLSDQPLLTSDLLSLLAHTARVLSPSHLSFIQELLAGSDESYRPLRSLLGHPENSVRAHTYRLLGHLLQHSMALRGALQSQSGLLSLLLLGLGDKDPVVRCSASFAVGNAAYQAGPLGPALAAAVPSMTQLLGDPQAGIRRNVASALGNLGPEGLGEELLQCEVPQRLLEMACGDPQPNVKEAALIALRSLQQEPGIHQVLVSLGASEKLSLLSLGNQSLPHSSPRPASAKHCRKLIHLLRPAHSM

[4] = system: Hepatocyte growth factor receptor (Homo sapiens), P08581 [Y1235D]; experiment: Selectivity interaction (KinomeScan (DiscoverX)) EUB0000311b MET; details: at 1 µM
Chain of Hepatocyte growth factor receptor (Homo sapiens), P08581 [Y1235D] (P08581 whole entry Y1235D): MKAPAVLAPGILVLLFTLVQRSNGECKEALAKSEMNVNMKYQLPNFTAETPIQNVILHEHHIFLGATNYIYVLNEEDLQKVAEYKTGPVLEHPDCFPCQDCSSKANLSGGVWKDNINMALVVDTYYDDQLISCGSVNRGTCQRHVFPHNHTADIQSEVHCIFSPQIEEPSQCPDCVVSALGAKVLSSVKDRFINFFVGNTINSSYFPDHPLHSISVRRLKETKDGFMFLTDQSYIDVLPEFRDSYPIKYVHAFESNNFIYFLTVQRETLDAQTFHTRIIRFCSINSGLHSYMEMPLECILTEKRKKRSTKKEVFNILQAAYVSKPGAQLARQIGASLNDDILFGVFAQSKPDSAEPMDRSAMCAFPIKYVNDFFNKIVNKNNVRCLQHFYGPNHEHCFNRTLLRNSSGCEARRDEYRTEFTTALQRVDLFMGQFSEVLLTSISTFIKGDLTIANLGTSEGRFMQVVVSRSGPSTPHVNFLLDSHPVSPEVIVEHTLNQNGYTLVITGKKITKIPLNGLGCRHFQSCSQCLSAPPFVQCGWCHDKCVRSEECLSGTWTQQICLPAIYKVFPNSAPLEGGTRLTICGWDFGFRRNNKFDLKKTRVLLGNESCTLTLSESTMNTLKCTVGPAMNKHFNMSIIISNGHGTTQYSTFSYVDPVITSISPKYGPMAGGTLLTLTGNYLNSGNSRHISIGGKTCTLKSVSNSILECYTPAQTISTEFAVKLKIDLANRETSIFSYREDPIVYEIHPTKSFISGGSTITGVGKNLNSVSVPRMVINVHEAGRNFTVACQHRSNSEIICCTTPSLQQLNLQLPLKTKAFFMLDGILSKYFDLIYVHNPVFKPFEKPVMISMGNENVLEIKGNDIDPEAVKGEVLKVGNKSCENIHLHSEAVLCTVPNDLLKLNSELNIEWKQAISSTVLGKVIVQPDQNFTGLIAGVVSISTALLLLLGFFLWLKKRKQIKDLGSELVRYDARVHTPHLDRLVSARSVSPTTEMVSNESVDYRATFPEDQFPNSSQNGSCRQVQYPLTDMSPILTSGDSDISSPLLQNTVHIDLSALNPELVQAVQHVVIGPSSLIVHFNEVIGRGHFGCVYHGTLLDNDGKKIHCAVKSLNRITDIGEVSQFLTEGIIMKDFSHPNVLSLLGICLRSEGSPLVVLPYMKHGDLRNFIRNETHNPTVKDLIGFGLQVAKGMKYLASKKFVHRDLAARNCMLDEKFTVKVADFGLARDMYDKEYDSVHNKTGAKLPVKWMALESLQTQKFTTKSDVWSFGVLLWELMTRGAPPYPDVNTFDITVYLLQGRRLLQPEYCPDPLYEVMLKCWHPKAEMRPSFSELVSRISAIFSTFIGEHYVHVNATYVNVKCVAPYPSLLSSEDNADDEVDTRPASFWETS

[5] = target: T3, 3-phosphoinositide-dependent protein kinase 1 (Homo sapiens) (UniProt O15530); experiment: Selectivity interaction (KinomeScan (DiscoverX)) EUB0001619a PDPK1; details: at 1 µM
T3 sequence (whole entry): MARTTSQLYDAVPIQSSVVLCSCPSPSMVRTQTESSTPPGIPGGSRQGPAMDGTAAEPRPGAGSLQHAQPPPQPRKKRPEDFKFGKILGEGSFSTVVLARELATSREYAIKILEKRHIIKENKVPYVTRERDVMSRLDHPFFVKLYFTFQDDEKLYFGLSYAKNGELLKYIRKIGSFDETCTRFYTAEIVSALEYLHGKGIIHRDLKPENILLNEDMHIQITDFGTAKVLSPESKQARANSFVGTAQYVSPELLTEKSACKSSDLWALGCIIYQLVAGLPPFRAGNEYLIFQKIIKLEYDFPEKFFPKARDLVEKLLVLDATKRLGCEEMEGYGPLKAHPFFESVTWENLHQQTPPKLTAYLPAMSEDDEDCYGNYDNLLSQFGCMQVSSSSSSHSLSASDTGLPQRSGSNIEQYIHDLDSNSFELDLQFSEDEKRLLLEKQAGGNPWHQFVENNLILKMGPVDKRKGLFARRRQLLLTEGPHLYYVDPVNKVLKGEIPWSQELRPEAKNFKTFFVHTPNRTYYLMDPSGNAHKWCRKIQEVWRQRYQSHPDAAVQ

Chain of Tyrosine-protein kinase ABL1 (P00519 whole entry): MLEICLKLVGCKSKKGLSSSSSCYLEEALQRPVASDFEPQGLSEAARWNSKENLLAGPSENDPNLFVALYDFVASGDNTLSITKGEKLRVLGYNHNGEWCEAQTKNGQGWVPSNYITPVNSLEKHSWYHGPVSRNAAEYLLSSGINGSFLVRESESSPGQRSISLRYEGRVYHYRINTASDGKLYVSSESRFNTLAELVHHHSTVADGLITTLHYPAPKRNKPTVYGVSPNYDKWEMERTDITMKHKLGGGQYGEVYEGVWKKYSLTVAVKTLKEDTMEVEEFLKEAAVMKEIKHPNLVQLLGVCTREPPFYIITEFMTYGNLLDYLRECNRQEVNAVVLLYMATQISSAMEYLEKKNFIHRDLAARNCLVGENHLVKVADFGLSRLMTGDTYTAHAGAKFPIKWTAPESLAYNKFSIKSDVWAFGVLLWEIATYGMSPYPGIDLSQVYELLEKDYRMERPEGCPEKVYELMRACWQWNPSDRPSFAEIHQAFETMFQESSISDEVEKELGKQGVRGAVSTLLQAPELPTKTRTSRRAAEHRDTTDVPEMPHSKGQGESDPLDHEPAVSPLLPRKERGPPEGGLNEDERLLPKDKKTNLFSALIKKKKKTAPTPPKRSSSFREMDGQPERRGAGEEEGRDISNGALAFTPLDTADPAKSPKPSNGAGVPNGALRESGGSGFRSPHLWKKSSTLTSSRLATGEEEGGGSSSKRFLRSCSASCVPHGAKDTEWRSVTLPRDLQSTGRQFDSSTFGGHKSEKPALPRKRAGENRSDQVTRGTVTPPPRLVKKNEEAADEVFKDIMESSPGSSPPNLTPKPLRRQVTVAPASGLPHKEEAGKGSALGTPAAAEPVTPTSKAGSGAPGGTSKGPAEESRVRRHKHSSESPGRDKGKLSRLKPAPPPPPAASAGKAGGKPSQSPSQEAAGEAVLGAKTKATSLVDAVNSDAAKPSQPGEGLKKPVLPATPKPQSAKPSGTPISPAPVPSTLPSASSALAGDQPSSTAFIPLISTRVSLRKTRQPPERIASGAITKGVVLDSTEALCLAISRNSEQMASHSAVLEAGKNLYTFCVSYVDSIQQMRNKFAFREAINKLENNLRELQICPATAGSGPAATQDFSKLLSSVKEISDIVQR

Cc1cc([C@@H](C)Nc2ccccc2C(=O)O)c2nc(N3CCOCC3)cc(=O)n2c1 [AZD-6482] gave a % of control [1] of 88%.

CC[C@@H]1[C@H](F)C(=O)N[C@@H]1COc1nccc2cc(C(N)=O)c(OC)cc12 [ZIMLOVISERTIB] gave a % of inhibition [2] of -29.5%.

With Cc1cc(F)c(C(=O)Nc2cccc(-c3nncn3C(C)C)n2)cc1-n1cnc(C2CC2)c1 the % of control [3] was 100%.

CCc1ccccc1C(=O)Nc1n[nH]c2c(C)c(F)c(C3C(C#N)=C(C)N(C)C(C)=C3C#N)cc12 [BAY-3827] showed a % of control [4] of 16%.

Work on N#Cc1cccc(-c2c[nH]c3ncnc(N4CCOCC4)c23)c1 yielded a % of control [5] of 100%.
